Measurements: article PMC4298654, “In vivo formation of N-acyl-fumonisin B1” (Mycotoxin Research, 2014)

Assay: In vivo formation of NAFB1 and NAHFB1 in rat kidney and liver (HPLC-ESI-MS/MS)
Parameters: N-acyl-derivative in tissue sample, analysis a / N-acyl-derivative in tissue sample, analysis b / N-acyl-derivative in tissue sample, mean: unit not given here
Settings: 5 days
Text: The study protocol was approved by the Institutional Animal Care and Use Committee, Richard B. Russell Agricultural Research Center, Athens, GA. Male Sprague–Dawley rats (Harlan Industries, Indianapolis, IN, USA), 7 weeks of age at receipt, were individually housed in stainless steel, wire mesh cages in an environmentally controlled room having a 12-h light/dark cycle. Food (2019 Global Rodent Diet, Teklad, Madison, WI, USA) and fresh tap water were provided ad libitum. After a 1 week acclimation period, the animals were randomly assigned to five groups (n = 2/group) having mean weights of 215 to 216 g (weight range of all animals, 211 to 220 g). For five consecutive days, they were observed, weighed, and given an intraperitoneal injection (ip) of 0 (vehicle), 0.5, 1.0, or 2.0 mg/kg body weight FB1 (provided by R. Eppley, US FDA), 1.0 mg/kg body weight HFB1 (positive control) (Voss et al. [2009]), or vehicle (0.9 % physiological saline). These doses corresponded to 0.69, 1.38, and 2.77 μmol FB1/kg body weight and 2.47 μmol/kg body weight HFB1 per day. In order to compare the effects of FB1 and HFB1, dosages will be expressed as molar concentrations and, on this basis, the high dose of FB1 is roughly equivalent to that of the positive control dose of HFB1. Dosing solutions were sterile filtered and administered at a volume rate of 10 ml/kg body weight. The animals were fasted overnight prior to administration of the final dose. The rats were euthanized (CO2 inhalation and exsanguination) 60 to 90 min following the final dose administration and examined by necropsy. The kidney and liver specimens were fixed in 10 % neutral buffered formalin, processed, and microscopically evaluated without knowledge of the animal’s identity or treatment group. Three representative liver and kidney specimens (100 mg each) were also collected, immediately frozen, and stored (−80 °C) until processed, at which time the tissues were thawed and homogenized in distilled/deionized water (1 ml water/100 mg tissue). The homogenates were lyophilized before they were shipped by overnight courier for the analysis of fumonisin metabolites and sphingolipids.
Lyophilized liver and kidney tissues (100 mg wet weight equivalents) were processed for the quantification of FB1, HFB1, NAFB1, NAHFB1, and sphingolipids. Preparation of the tissue samples was performed according to a previously published method (Harrer et al. [2013]). For the quantification of FB1 and HFB1, a d6-labeled derivative of FB1 (FB1-d6) was used as the internal standard. Synthetic derivatives with a heptadecanoic fatty acid (C17:0) residue were used as internal standards for the quantification of N-acyl-fumonisins and ceramides (N-C17:0-FB1, N-C17:0-HFB1, and N-C17:0-ceramide). The sphingoid bases and their phosphate derivatives were quantified using synthetic derivatives with a C17-acyl-backbone: sphingosine (C17:1), sphingosine-1-phosphate (C17:1), sphinganine (C17:0), sphinganine-1-phosphate (C17:0) as internal standards. The standards were dissolved in methanol:chloroform (2:1, v/v) and then mixed with the tissue samples. The samples spiked with internal standard were kept at room temperature for 30 min before being processed further. The internal standard-spiked samples were first extracted with ethyl acetate, isopropanol, and water (60:30:10, v/v/v) and a second time using methanol, chloroform, and water (60:30:10, v/v/v). The extracts were combined, the solvents removed by evaporation, and the dried samples stored at−80 °C till analyzed.
For the analysis, the samples were reconstituted in a mixture of water, methanol, and tetrahydrofurane (60:24:16, v/v/v). The NAFB1 and NAHFB1 derivatives having the following fatty acyl chain lengths were quantified by HPLC-MS/MS: C16:0, C18:0, C20:0, C22:0, C24:0, C26:0. Furthermore, we also quantified the unsaturated derivatives C24:1 and C26:1. The results are given as the sum of all N-acyl derivatives of FB1 or HFB1. […]

[1] = Kidney, treatment FB1 0,5 mg/kg BW ip
[2] = Kidney, treatment FB1 1 mg/kg BW ip
[3] = Kidney, treatment FB1 2 mg/kg BW ip
[4] = Kidney, treatment HFB1 1 mg/kg BW ip
[5] = Liver, treatment FB1 0,5 mg/kg BW ip
[6] = Liver, treatment FB1 1 mg/kg BW ip
[7] = Liver, treatment FB1 2 mg/kg BW ip
[8] = Liver, treatment HFB1 1 mg/kg BW ip

Compound | N-acyl-derivative in tissue sample, analysis a [2] | N-acyl-derivative in tissue sample, analysis b [2] | N-acyl-derivative in tissue sample, mean [2] | N-acyl-derivative in tissue sample, analysis a [3] | N-acyl-derivative in tissue sample, analysis b [3] | N-acyl-derivative in tissue sample, mean [3] | N-acyl-derivative in tissue sample, analysis a [4] | N-acyl-derivative in tissue sample, analysis b [4] | N-acyl-derivative in tissue sample, mean [4] | N-acyl-derivative in tissue sample, analysis a [5] | N-acyl-derivative in tissue sample, analysis b [5] | N-acyl-derivative in tissue sample, mean [5] | N-acyl-derivative in tissue sample, analysis a [6] | N-acyl-derivative in tissue sample, analysis b [6] | N-acyl-derivative in tissue sample, mean [6] | N-acyl-derivative in tissue sample, analysis a [7] | N-acyl-derivative in tissue sample, analysis b [7] | N-acyl-derivative in tissue sample, mean [7] | N-acyl-derivative in tissue sample, analysis a [8] | N-acyl-derivative in tissue sample, analysis b [8] | other results
CCCCCCCCCCCCCCCC(=O)N[C@@H](C)[C@@H](O)C[C@H](O)CCCC[C@@H](O)C[C@H](C)C[C@H](O)[C@H](O)[C@H](C)CCCC [HFB1C16:0] | 0,2 | 0,1 | 0,2 | 0,3 | 0,5 | 0,4 | 22,7 | 37,3 | 30,0 | 0,3 | 0,4 | 0,3 | 0,0 | 0,4 | 0,2 | 0,0 | 0,3 | 0,1 | 34,9 | 44,3 | N-acyl-derivative in tissue sample, analysis a [1]: 0,0; N-acyl-derivative in tissue sample, analysis b [1]: 0,2; N-acyl-derivative in tissue sample, mean [1]: 0,1; N-acyl-derivative in tissue sample, mean [8]: 39,6
CCCCCCCCCCCCCCCCCC(=O)N[C@@H](C)[C@@H](O)C[C@H](O)CCCC[C@@H](O)C[C@H](C)C[C@H](O)[C@H](O)[C@H](C)CCCC [HFB1C18:0] | 0,1 | 0,0 | 0,1 | 0,0 | 0,1 | 0,1 | 2,6 | 1,8 | 2,2 | 0,3 | 0,1 | 0,2 | 0,0 | 0,0 | 0,0 | 0,0 | 0,0 | 0,0 | 1,5 | 2,0 | N-acyl-derivative in tissue sample, analysis a [1]: 0,1; N-acyl-derivative in tissue sample, analysis b [1]: 0,2; N-acyl-derivative in tissue sample, mean [1]: 0,2; N-acyl-derivative in tissue sample, mean [8]: 1,8
CCCCCCCCCCCCCCCCCCCCCC(=O)NC(C)C(O)CC(O)CCCCC(O)CC(C)CC(OC(=O)CC(CC(=O)O)C(=O)O)C(OC(=O)CC(CC(=O)O)C(=O)O)C(C)CCCC (stereo not drawn) [FB1C22:0] | 0,9 | 0,6 | 0,7 | 0,9 | 1,4 | 1,2 | 0,0 | 0,0 | 0,0 | 2,9 | 6,4 | 4,7 | 1,2 | 4,0 | 2,6 | 2,9 | 4,6 | 3,8 | 0,0 | 0,0 | N-acyl-derivative in tissue sample, analysis a [1]: 0,7; N-acyl-derivative in tissue sample, analysis b [1]: 0,7; N-acyl-derivative in tissue sample, mean [1]: 0,7; N-acyl-derivative in tissue sample, mean [8]: 0,0
CCCCCCCCCCCCCCCC(=O)NC(C)C(O)CC(O)CCCCC(O)CC(C)CC(OC(=O)CC(CC(=O)O)C(=O)O)C(OC(=O)CC(CC(=O)O)C(=O)O)C(C)CCCC (stereo not drawn) [FB1C16:0] | 14,4 | 12,6 | 13,5 | 12,1 | 13,8 | 13,0 | 0,0 | 0,0 | 0,0 | 6,8 | 5,1 | 6,0 | 3,9 | 6,4 | 5,2 | 8,4 | 5,9 | 7,1 | 0,0 | 0,0 | N-acyl-derivative in tissue sample, analysis a [1]: 7,4; N-acyl-derivative in tissue sample, analysis b [1]: 9,1; N-acyl-derivative in tissue sample, mean [1]: 8,2; N-acyl-derivative in tissue sample, mean [8]: 0,0
CCCCCCCCCCCCCCCCCCCCCCCC(=O)NC(C)C(O)CC(O)CCCCC(O)CC(C)CC(OC(=O)CC(CC(=O)O)C(=O)O)C(OC(=O)CC(CC(=O)O)C(=O)O)C(C)CCCC (stereo not drawn) [FB1C24:0] | 3,0 | 2,4 | 2,7 | 5,0 | 4,4 | 4,7 | 0,0 | 0,0 | 0,0 | 11,7 | 12,3 | 12,0 | 2,1 | 7,3 | 4,7 | 9,0 | 17,6 | 13,3 | 0,0 | 0,0 | N-acyl-derivative in tissue sample, mean [8]: 0,0
CCCCCCCCCCCCCCCCCCCC(=O)NC(C)C(O)CC(O)CCCCC(O)CC(C)CC(OC(=O)CC(CC(=O)O)C(=O)O)C(OC(=O)CC(CC(=O)O)C(=O)O)C(C)CCCC (stereo not drawn) [FB1C20:0] | 0,2 | 0,0 | 0,1 | 0,0 | 0,6 | 0,3 | 0,0 | 0,0 | 0,0 | 0,0 | 0,0 | 0,0 | 0,0 | 0,0 | 0,0 | 0,0 | 0,0 | 0,0 | 0,0 | 0,0 | N-acyl-derivative in tissue sample, analysis a [1]: 0,2; N-acyl-derivative in tissue sample, analysis b [1]: 0,5; N-acyl-derivative in tissue sample, mean [1]: 0,4; N-acyl-derivative in tissue sample, mean [8]: 0,0
